From patent US7166570B2, “Medical implants and fibrosis-inducing agents” (Angiotech International AG, priority 2003, dated 2007)

Experiments:
Assay in all cases: MIC determination by microtitre broth dilution
Assay type in all cases: cell-based
E. coli UB1005 C498 wt = conditions: Gram−, Mueller Hinton broth, 37° C., 24 h, aerobic, N = No activity
Protocol: (§1) MIC assays were conducted essentially as described by Amsterdam, D. 1996, “Susceptibility testing of antimicrobials in liquid media,” p. 52–111. In Loman, V., ed. Antibiotics in laboratory medicine, 4th ed. Williams and Wilkins, Baltimore, Md.

[1] = tested on: K. pneumoniae ATCC13883 C238 wt; conditions: Gram−, Mueller Hinton broth, 37° C., 24 h, aerobic, N = No activity
Protocol: as §1

[2] = tested on: P. aeruginosa PAE/K799 H187 Wt; conditions: Gram−, Mueller Hinton broth, 37° C., 24 h, aerobic, N = No activity
Protocol: as §1

[3] = tested on: S. aureus ATCC25923 C622 wt; conditions: Gram+, Mueller Hinton broth, 37° C., 24 h, aerobic, N = No activity
Protocol: as §1

S. epidermidis C621 wt = conditions: Gram+, Mueller Hinton broth, 37° C., 24 h, aerobic, N = No activity
Protocol: as §1

S. pyogenes C721 wt = conditions: Gram+, Todd Hewitt broth, 37° C., 24 h, aerobic, N = No activity
Protocol: as §1

Sc1ncc2[nH]cnc2n1 [2-mercaptopurine]
Minimum inhibitory concentration (MIC) (E. coli UB1005 C498 wt): N | Minimum inhibitory concentration (MIC) [1]: N | Minimum inhibitory concentration (MIC) [2]: N | Minimum inhibitory concentration (MIC) [3]: N | Minimum inhibitory concentration (MIC) (S. epidermidis C621 wt): N | Minimum inhibitory concentration (MIC) (S. pyogenes C721 wt): N

O=c1[nH]cc(F)c(=O)[nH]1 [5-Fluorouracil]
Minimum inhibitory concentration (MIC) (E. coli UB1005 C498 wt): 10^−6 Molar | Minimum inhibitory concentration (MIC) [1]: 10^−6 Molar | Minimum inhibitory concentration (MIC) [2]: 10^−5 Molar | Minimum inhibitory concentration (MIC) [3]: 10^−7 Molar | Minimum inhibitory concentration (MIC) (S. epidermidis C621 wt): 10^−7 Molar | Minimum inhibitory concentration (MIC) (S. pyogenes C721 wt): 10^−4 Molar

Sc1ncnc2nc[nH]c12 [6-mercaptopurine]
Minimum inhibitory concentration (MIC) (E. coli UB1005 C498 wt): N | Minimum inhibitory concentration (MIC) [1]: N | Minimum inhibitory concentration (MIC) [2]: N | Minimum inhibitory concentration (MIC) [3]: N | Minimum inhibitory concentration (MIC) (S. epidermidis C621 wt): N | Minimum inhibitory concentration (MIC) (S. pyogenes C721 wt): N

CC[C@@]1(O)C(=O)OCc2c1cc1n(c2=O)Cc2cc3ccccc3nc2-1 [Camptothecin]
Minimum inhibitory concentration (MIC) (E. coli UB1005 C498 wt): N | Minimum inhibitory concentration (MIC) [1]: N | Minimum inhibitory concentration (MIC) [2]: N | Minimum inhibitory concentration (MIC) [3]: N | Minimum inhibitory concentration (MIC) (S. epidermidis C621 wt): 10^−4 Molar | Minimum inhibitory concentration (MIC) (S. pyogenes C721 wt): N

Nc1ccn([C@@H]2O[C@H](CO)[C@@H](O)[C@@H]2O)c(=O)n1 [Cytarabine]
Minimum inhibitory concentration (MIC) (E. coli UB1005 C498 wt): N | Minimum inhibitory concentration (MIC) [1]: N | Minimum inhibitory concentration (MIC) [2]: N | Minimum inhibitory concentration (MIC) [3]: N | Minimum inhibitory concentration (MIC) (S. epidermidis C621 wt): N | Minimum inhibitory concentration (MIC) (S. pyogenes C721 wt): N

COc1cccc2c1C(=O)c1c(O)c3c(c(O)c1C2=O)C[C@@](O)(C(=O)CO)C[C@@H]3O[C@H]1C[C@H](N)[C@H](O)[C@H](C)O1 [Doxorubicin]
Minimum inhibitory concentration (MIC) (E. coli UB1005 C498 wt): 10^−4 Molar | Minimum inhibitory concentration (MIC) [1]: 10^−6 Molar | Minimum inhibitory concentration (MIC) [2]: 10^−5 Molar | Minimum inhibitory concentration (MIC) [3]: 10^−5 Molar | Minimum inhibitory concentration (MIC) (S. epidermidis C621 wt): 10^−6 Molar | Minimum inhibitory concentration (MIC) (S. pyogenes C721 wt): 10^−7 Molar

CN(Cc1cnc2nc(N)nc(N)c2n1)c1ccc(C(=O)N[C@@H](CCC(=O)O)C(=O)O)cc1 [Methotrexate]
Minimum inhibitory concentration (MIC) (E. coli UB1005 C498 wt): N | Minimum inhibitory concentration (MIC) [1]: 10^−6 Molar | Minimum inhibitory concentration (MIC) [2]: N | Minimum inhibitory concentration (MIC) [3]: 10^−5 Molar | Minimum inhibitory concentration (MIC) (S. epidermidis C621 wt): N | Minimum inhibitory concentration (MIC) (S. pyogenes C721 wt): 10^−6 Molar

COc1cc([C@@H]2c3cc4c(cc3[C@@H](O[C@@H]3O[C@@H]5CO[C@@H](C)O[C@H]5[C@H](O)[C@H]3O)[C@H]3COC(=O)[C@H]23)OCO4)cc(OC)c1O [etoposide]
Minimum inhibitory concentration (MIC) (E. coli UB1005 C498 wt): N | Minimum inhibitory concentration (MIC) [1]: 10^−5 Molar | Minimum inhibitory concentration (MIC) [2]: N | Minimum inhibitory concentration (MIC) [3]: 10^−5 Molar | Minimum inhibitory concentration (MIC) (S. epidermidis C621 wt): 10^−6 Molar | Minimum inhibitory concentration (MIC) (S. pyogenes C721 wt): 10^−5 Molar

NC(=O)NO [hydroxyurea]
Minimum inhibitory concentration (MIC) (E. coli UB1005 C498 wt): N | Minimum inhibitory concentration (MIC) [1]: N | Minimum inhibitory concentration (MIC) [2]: 10^−4 Molar | Minimum inhibitory concentration (MIC) [3]: N | Minimum inhibitory concentration (MIC) (S. epidermidis C621 wt): N | Minimum inhibitory concentration (MIC) (S. pyogenes C721 wt): 10^−4 Molar

O=C1c2c(O)ccc(O)c2C(=O)c2c(NCCNCCO)ccc(NCCNCCO)c21 [mitoxantrone]
Minimum inhibitory concentration (MIC) (E. coli UB1005 C498 wt): 10^−5 Molar | Minimum inhibitory concentration (MIC) [1]: 10^−6 Molar | Minimum inhibitory concentration (MIC) [2]: 10^−5 Molar | Minimum inhibitory concentration (MIC) [3]: 10^−5 Molar | Minimum inhibitory concentration (MIC) (S. epidermidis C621 wt): 10^−5 Molar | Minimum inhibitory concentration (MIC) (S. pyogenes C721 wt): 10^−6 Molar

Nc1ncnc2c1ccn2[C@@H]1O[C@H](CO)[C@@H](O)[C@H]1O [tubercidin]
Minimum inhibitory concentration (MIC) (E. coli UB1005 C498 wt): N | Minimum inhibitory concentration (MIC) [1]: N | Minimum inhibitory concentration (MIC) [2]: N | Minimum inhibitory concentration (MIC) [3]: N | Minimum inhibitory concentration (MIC) (S. epidermidis C621 wt): N | Minimum inhibitory concentration (MIC) (S. pyogenes C721 wt): N
